The values below come from patent US10167311B2, “Boronic acid esters and pharmaceutical formulations thereof” (OHIO STATE INNOVATION FOUNDATION, priority 2014, dated 2019).

Read-outs that look alike come from different tables or passages of the source.

Data set [1] is described as follows: Encapsulation (drug entrapment / loading) efficiency of liposomes, Sepharose CL-4B fractions, UV-vis OD 270 nm. Format: physicochemical. As to conditions: liposomal formulation; drug in liposome fractions / total drug fractions. Here is the method:
The liposome particle size distribution is determined through dynamic light scattering on a NICOMP Submicron Particle Sizer Model 370. The encapsulation efficiency was examined by a UV-visible spectrophotometer as the OD at 270 nm after 1:9 methanol extraction of fractions from the Sepharose CL-4B column (FIG. 1). A reference measurement was also taken of the OD at 450 nm without methanol extraction (FIG. 1). Then, the ratio of total amount of drug content in the liposome fractions to total drug fractions was calculated. In this example, a drug entrapment of 41% was obtained. The liposome particle size distribution was determined through dynamic light scattering on a NICOMP Submicron Particle Sizer Model 370. The encapsulation efficiency was examined by a UV-visible spectrophotometer as the OD at 270 nm after 1:9 methanol dissolution of fractions collected from the Sepharose column. A reference measurement was also taken of the OD at 450 nm without methanol dissolution. Then, the ratio of total amount of drug content in the liposome fractions to total drug fractions was calculated. […] The liposome particle size distribution was determined through dynamic light scattering on a NICOMP Submicron Particle Sizer Model 370. […] Then, the ratio of total amount of drug content in the liposome fractions to total drug fractions was calculated. […] Each fraction was analyzed by UV-vis spectrophotometry. […]

The test system of another data set is MV4-11 AML cells. The experiment in a line: Survival of MV4-11 engrafted NSG mice. Format: in vivo. As to conditions: liposomal formulation, 1 mg/kg twice a week. Here is the method: The therapeutic activity of BTZ-MEGA-CHOL was also investigated using animal studies. NSG mice were injected with 5×10^5 MV4-11 AML cells. The mice were divided into two groups of 10 each (Trial I), and were treated with empty liposomes or the liposomal formulation of BTZ-MEGA-CHOL at 1 mg/kg, twice a week, by tail vein injection. The study was repeated once with 5 mice in each group (Trial II). Three mice from each group were sacrificed after 4 weeks of treatment in Trial I for further analysis.
For Trial I, the p value was 0.0007 (FIG. 9). For Trial II the p value was 0.0019 (FIG. 10). When the data set was viewed as a combination, the p value was <0.0001 and median survival of the mice was 28 days for the empty liposome treated (control) group and 39 days for the BTZ-MEGA-CHOL treated group (FIG. 11).

For data set [2] the following is noted: cited from earlier work.
A short description of data set [3]: Pharmacokinetics in plasma after i.v. administration (boron by ICP-OES). It is filed as in vivo. The note with it: ICR mice, i.v. 1.0 mg/kg, two-compartment model, mean ± SD (n = 3). Here is the method: The Pharmacokinetics of L-BTZ was studied in ICR mice (Charles River Lab, Wilmington, Mass.). The PK profile of free BTZ was also determined. Mice were given intravenous injections of free BTZ or L-BTZ at 1.0 mg/kg body weight via tail vein. At selected time intervals, a minimum of 100 μL […] was collected from each mouse using heparin-containing tubes. Plasma was then isolated by centrifugation at 3000× g for 5 min. The drug concentration in plasma was determined by measuring Boron concentration through an inductively coupled plasma-optical emission spectrometer (ICP-OES). The Boron extraction and sample preparation has been described previously. The pharmacokinetic parameters of free BTZ and L-BTZ were calculated using WinNonlin software and a two-compartment model and are shown in Table 1.

In the case of `CC(C)CCC[C@@H](C)C1CCC2C3CC=C4C[C@@H](OC(=O)N(C)CC(O)[C@H]5OB([C@H](CC(C)C)NC(=O)[C@H](Cc6ccccc6)NC(=O)c6cnccn6)O[C@@H]5C(O)CO)CC[C@]4(C)C3CC[C@@]21C` (stereo partly drawn) [BTZ-MEGA-CHOL], the “drug entrapment (encapsulation efficiency)” value in data set [1] worked out at 80.11%. In addition, in the data set with MV4-11 AML cells (tail vein, Trial I and II combined, p <0.0001 vs empty liposomes (28 days)), the median survival amounted to 39 days. For the same molecule, the survival of mice result in the data set on MV4-11 AML cells (Trial I p 0.0007, Trial II p 0.0019) was “significant increase in survival”.
Broadly, the AUC is the area under the concentration-time curve, a measure of exposure. Low values mean less exposure, high ones more exposure. For orientation: clearance means a measure of how efficiently the substance is removed, as volume per time. A higher clearance goes with efficient removal. On to `CC(C)C[C@H](NC(=O)[C@H](Cc1ccccc1)NC(=O)c1cnccn1)B(O)O` [Free BTZ, Bortezomib], for which the maximum tolerated dose in data set [2] (intravenous bolus on days 1, 4, 8, and 11 of a 3-week cycle) is recorded as 1.56 mg/m^2. The maximum tolerated dose in data set [2] (patients with solid tumors, intravenously once or twice weekly) is reported as 1.3 mg/m^2. In data set [3], this molecule yielded a T1/2α of 6 ± 1.2 min and a T1/2β of 18.26 ± 13.33 h. In data set [3] (mouse, iv), this molecule had an AUC of 2870 ± 1340 ng·h/mL and a clearance of 5.8 mL/min/kg.
